# Data published in article PMC2365101, “Anti-Inflammatory Activity of (Polyphenolic)-Sulfonates and Their Sodium Salts in Rodents” (Metal-Based Drugs, 1998).
# Key:
# [1] = tested on: CF1 male mice, carrageenan induced edema; assay: Anti-inflammatory screen in mice (carrageenan induced foot edema); format: in vivo; details: for Percent of Control (induced edema): CF1 male mice, N=6
# Excerpt: Few reports in the literature indicate interaction at these receptor sites other than by peptides or antibodies. […] Blocking these receptors is desirable because the entire inflammation cascade of events is triggered by the early release of TNFa and IL-1. […] Radioisotopes were obtained from New England Nuclear [Dupont, Boston, MA] and substrates and co- factors were obtained from Sigma Chemical Co. [St. Louis, MO]. […] Cell lines were obtained from American Type Culture Collection [Rockville, MD]. In Vivo Tests Anti-inflammatory screen in mice: Male CF male mice weighing 28-32g obtained from Jackson Lab. […] Evaluation of the induced edema was made by injecting 2% carrageenan in 0.9% saline into the plantar region of the foot. The opposite foot injected with 0.9% isotonic saline was used as a base line. […] Salmonella abortus equi [Lot # 69F4003] […] Drugs from 2 to 16 mg/kg, I.P. were administered 2 hr prior and 2 hr post-injection of the LPS and then subsequently for every 24 hr for the length ofthe animals' lives. Deaths were recorded every 12 hr and continued for 96 hr. […] In vitro TNFa andIL-1 Measurements and Cellular Regulation IC-21 mouse macrophages were maintained in RPMI-1640 + 10% FCS + P/S. After the cells had grown to confluency, E. coli LPS at 10 Ixg/ml was added to the medium. Agents were incubated at 12.5 to 100 µM final concentration for 18 hr. The medium (100 btl) was collected for TNFCt determinations. Interleukin-1 [IL-1] release was determined using P388D1 cells which were maintained in RPMI-1640 + 10% FCS + P/S. The L929 bioassay was used to quantitate the TNF and the IL-1 levels. The L929 mouse fibroblasts were grown in DMEM + 10% FCS + P/S to confluency in 96 well plates and incubated with 100 tl ofmedium from […] or P388D cells after 18 hr. The cells were stained with 0.2% crystal violet in 20% MeOH and read at 580 nm using a Molecular Devices scanner (SOFT-max program). High Affinity Binding to Receptors on L929-106 Cells Two laCi of 125I-TNFct (human recombinant, 30 mCi/tg New England Nuclear) or 125I-IL-1 (70-120[.t Ci/lxg,New England Nuclear) was added to confluency L929 cells for 90 min or 5 hr, respectively with 25, 50 and 100 tM of the test compounds 12]. The cells were washed repeatedly with isotonic saline, pH.7.2 and aliquots counted. Prostaglandin cylcooxygenase activity Mouse J774AI macrophages maintained in Dulbecco's modified Eagle's medium + 15% FCS + P/S. Cells (5 x 106) were incubated with agents (5 to 100 ].tM final concentration) and 3H-arachidonic acid (100 Ci/mol) for 60 min at 37C in a CO2 incubator. The reaction was terminated with 2N HCI, the mixture extracted 2 X with ether, and the organic layer evaporated.
# [2] = tested on: IL-1 release from P388D1 macrophages; assay: IL-1 release from P388D1 macrophages (L929 bioassay); format: cell-based, mouse; details: for IL-1 release, Percent of Control: over 18 hours, N=6; for reduction of IL-1 release: 25 and 50 μM, 18 hr
# Excerpt: Few reports in the literature indicate interaction at these receptor sites other than by peptides or antibodies. […] Blocking these receptors is desirable because the entire inflammation cascade of events is triggered by the early release of TNFa and IL-1. […] Radioisotopes were obtained from New England Nuclear [Dupont, Boston, MA] and substrates and co- factors were obtained from Sigma Chemical Co. [St. Louis, MO]. […] Cell lines were obtained from American Type Culture Collection [Rockville, MD]. In Vivo Tests Anti-inflammatory screen in mice: Male CF male mice weighing 28-32g obtained from Jackson Lab. [Bar Harbor, […]] were used to screen agents at 8 or 16 mg/kg intraperitoneal [I.P.] x 2 administered 3 hr and 30 min prior to administering the irritant, according to Winter's protocol. Evaluation of the induced edema was made by injecting 2% carrageenan in 0.9% saline into the plantar region of the foot. The opposite foot injected with 0.9% isotonic saline was used as a base line. […] Salmonella abortus equi [Lot # 69F4003] […] Drugs from 2 to 16 mg/kg, I.P. were administered 2 hr prior and 2 hr post-injection of the LPS and then subsequently for every 24 hr for the length ofthe animals' lives. Deaths were recorded every 12 hr and continued for 96 hr. […] In vitro TNFa andIL-1 Measurements and Cellular Regulation IC-21 mouse macrophages were maintained in RPMI-1640 + 10% FCS + P/S. After the cells had grown to confluency, E. coli LPS at 10 Ixg/ml was added to the medium. Agents were incubated at 12.5 to 100 µM final concentration for 18 hr. The medium (100 btl) was collected for TNFCt determinations. Interleukin-1 [IL-1] release was determined using P388D1 cells which were maintained in RPMI-1640 + 10% FCS + P/S. The L929 bioassay was used to quantitate the TNF and the IL-1 levels. The L929 mouse fibroblasts were grown in DMEM + 10% FCS + P/S to confluency in 96 well plates and incubated with 100 tl ofmedium from […] or P388D cells after 18 hr. The cells were stained with 0.2% crystal violet in 20% MeOH and read at 580 nm using a Molecular Devices scanner (SOFT-max program). High Affinity Binding to Receptors on L929-106 Cells Two laCi of 125I-TNFct (human recombinant, 30 mCi/tg New England Nuclear) or 125I-IL-1 (70-120[.t Ci/lxg,New England Nuclear) was added to confluency L929 cells for 90 min or 5 hr, respectively with 25, 50 and 100 tM of the test compounds 12]. The cells were washed repeatedly with isotonic saline, pH.7.2 and aliquots counted. Prostaglandin cylcooxygenase activity Mouse J774AI macrophages maintained in Dulbecco's modified Eagle's medium + 15% FCS + P/S. Cells (5 x 106) were incubated with agents (5 to 100 ].tM final concentration) and 3H-arachidonic acid (100 Ci/mol) for 60 min at 37C in a CO2 incubator. The reaction was terminated with 2N HCI, the mixture extracted 2 X with ether, and the organic layer evaporated.
Compound,"Percent of Control (induced edema) ([1]; 16 mg/Kg X 2, I.P.)",reduction of edema ([1]; 16 mg/kg X 2),"IL-1 release, Percent of Control ([2]; 12.5 μM)","IL-1 release, Percent of Control ([2]; 25 μM)","IL-1 release, Percent of Control ([2]; 50 μM)",reduction of IL-1 release [2] [%],"Percent of Control (induced edema) ([1]; 8 mg/Kg X 2, I.P.)"
COc1c2cc(S(=O)(=O)[O-])cc1Cc1cc(S(=O)(=O)[O-])cc(c1OC)Cc1cc(S(=O)(=O)[O-])cc(c1OC)Cc1cc(S(=O)(=O)[O-])cc(c1OC)Cc1cc(S(=O)(=O)[O-])cc(c1OC)Cc1cc(S(=O)(=O)[O-])cc(c1OC)C2.[Na+].[Na+].[Na+].[Na+].[Na+].[Na+] [Compound 6],48+3% of Control,greater than 40%,6 + 2% of Control,0% of Control,0% of Control,> 95,–
CC(=O)Oc1c2cc(S(=O)(=O)[O-])cc1Cc1cc(S(=O)(=O)[O-])cc(c1OC(C)=O)Cc1cc(S(=O)(=O)[O-])cc(c1OC(C)=O)Cc1cc(S(=O)(=O)[O-])cc(c1OC(C)=O)Cc1cc(S(=O)(=O)[O-])cc(c1OC(C)=O)Cc1cc(S(=O)(=O)[O-])cc(c1OC(C)=O)Cc1cc(S(=O)(=O)[O-])cc(c1OC(C)=O)Cc1cc(S(=O)(=O)[O-])cc(c1OC(C)=O)C2.[Na+].[Na+].[Na+].[Na+].[Na+].[Na+].[Na+].[Na+] [Compound 8],38+3% of Control,–,66 + 4% of Control,0% of Control,0% of Control,> 95,70 + 6% of Control
"Pentosan sulfate [Pentosan polysulfate, reference compound]",49+4% of Control,–,–,–,–,–,–
